≈ marks a conversion by molar mass, not a printed value.
Tested on: Anopheles stephensi
Test: Insecticidal activity against fourth instar larvae of Anopheles stephensi assessed as mortality after 24 hrs
Type: functional

SMILES	LC50
CC(=O)O[C@@H]1[C@H](O)[C@H]2C(C)(C)C(=O)C=C[C@]2(C)[C@H]2CC[C@]3(C)C(=CC[C@H]3C3=COCC3)[C@]12C	60 µg/mL (≈ 132 µM)
CC(=O)O[C@@H]1[C@H](O)[C@H]2C(C)(C)C(=O)C=C[C@]2(C)[C@H]2CC[C@@]3(C)CC(=O)C=C3[C@]12C	43 µg/mL (≈ 107 µM)

— ChEMBL document CHEMBL1150621, “Two new triterpenoids from Azadirachta indica and their insecticidal activity” (2002)
